Biological target: T1, Histone deacetylase 8 (Homo sapiens, UniProt Q9BY41)
T1 sequence (Q9BY41 whole entry): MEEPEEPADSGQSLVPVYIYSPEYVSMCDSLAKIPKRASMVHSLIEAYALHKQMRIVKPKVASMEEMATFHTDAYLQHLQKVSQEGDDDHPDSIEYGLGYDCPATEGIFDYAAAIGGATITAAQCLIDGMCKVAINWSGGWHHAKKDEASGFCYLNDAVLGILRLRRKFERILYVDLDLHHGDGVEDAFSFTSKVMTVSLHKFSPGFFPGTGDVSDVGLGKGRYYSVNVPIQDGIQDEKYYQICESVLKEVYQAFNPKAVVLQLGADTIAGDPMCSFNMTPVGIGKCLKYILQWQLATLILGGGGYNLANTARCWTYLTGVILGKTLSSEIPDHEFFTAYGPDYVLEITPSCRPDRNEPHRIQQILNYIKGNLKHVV
Assay: Fluorometric Assay: Compounds were tested for their ability to inhibit histone deacetylase 8 using an in vitro deacetylation assay. In a detailed procedure, 8 μl of HDAC8 enzyme solution (0.125 μg/μl) was transferred to assay plates (CORNING 3676). 1 μl of half-log diluted compounds were added into wells and incubated for 15 min at rt. After that, 8 μl of substrate solution was transferred to the wells and incubated for 30 min at rt. After deacetylation of the substrate by incubation with HDAC8 enzyme, subsequent exposure to a developing reagent produced a fluorophore that was directly proportional to the level of deacetylation. So 4 μl of developer regent (Cayman 10006394) was added into the wells in the assay plates and incubated for 15 min. The fluorescence signal was measured by a FlexStation3 plate reader (excitation wave length 340-360 nm; emission wave length 440-465 nm).

IC50: 0.47 µM
SMILES: O=C(NO)c1ccc2c(c1)CC(Nc1nccc(-c3cccnc3)n1)CN2 (stereo unspecified)

Reference: ChEMBL document CHEMBL3638605, “N-hydroxy-benzamids for the treatment of cancer” (2014)
